Laboratory results: patent US20260166029A1, “METHODS AND SYSTEMS FOR TREATING DISEASE USING AN ATR/CHK1 SIGNALING PATHWAY INHIBITOR” (Acrivon Therapeutics, Inc., priority 2022, published 2026)
pEC50: −log10 of the molar value. Where “and” joins values, the source holds several entries; their conditions need not be identical. Equal entries are not always repeated. Where two headings read alike, the source gives them in different places.

Experiments:
[1] = test system: HCT116; test: Cell viability, sensitivity to prexasertib (Example 1); set-up: species or system human; details: HCT116 cell line; based on EC50 from prior publications
Experimental: (§1) Predicted response to prexasertib was compared to experimentally measured sensitivity to prexasertib. […] EC50 values of less than or equal to 1 μM were considered to be actual responders, while values of greater than 1 μM were considered to be actual non-responders.

[2] = test system: PANC1; test: as above; set-up: species or system human; details: PANC1 cell line; based on EC50 from prior publications
Experimental: as §1

[3] = test system: OVCAR3 cells; test: Cell Titer Glo 2.0 viability after biomarker siRNA knockdown (Example 6); assay type: cell-based; details: Homo sapiens, OVCAR-3, 72 h, read-out: absolute EC50
Experimental: OVCAR3 cells cultured in RPMI medium with 20% FBS were transfected with siRNA (Silencer Select, cat #4390824, ThermoFisher) targeting TRIM28 (KAP1) CCNE1, CCNA2, or CHEK2, as compared with a negative control siRNA (cat #4390843, ThermoFisher) using RNAiMAX transfection reagent (ThermoFisher). Twenty-four hours after the transfection, cells were reseeded into 384-well plates and left to adhere for 24 hours before being treated with increasing doses of prexasertib. Relative cell viability against a DMSO control was assessed 72 hours after drug treatment using Cell Titer Glo 2.0 (Promega) and a SpectraMax microplate reader. Error bars represent standard deviations from quadruplicate samples.

[4] = test system: metastatic high-grade serous ovarian cancer; test: Observed treatment outcome in phase II clinical trials, patients with frozen pre-treatment biopsies (Example 4); assay type: in vivo, human; set-up: key to Treatment Result (RECIST): partial response (PR); stable disease (SD); progressive disease (PD)
Experimental: The study was conducted in a blinded, prospectively designed manner on pretreatment tumor biopsies collected from ovarian cancer patients treated in phase 2 trials at the NCI in the past with prexasertib, including a previous single center phase II clinical trial for prexasertib in metastatic high-grade serous ovarian cancer; see Lee et al., Lancet Oncol. 19(2): 207-215 (2018). These past studies were unable to identify predictive biomarkers. To evaluate whether a provided Response-Predictive Signature can successfully predict patient responders, frozen, de-identified sections of pre-treatment tumor biopsies from the phase II clinical trials were obtained. Moreover, they were received without any knowledge about clinical annotation, including response to prexasertib. Each patient tumor biopsy sample was stained using antibodies against three biomarkers and imaged using immunofluorescence microscopy. Biomarker 1 (BM1) was Ser296 phosphorylated Chk1. Biomarker 2 (BM2) was Ser473 phosphorylated Kap1. Biomarker 3 (BM3) was total cyclin E1. Unless otherwise indicated, these were the biomarkers used throughout the Examples.
To evaluate whether the provided Response-Predictive Signature can predict response to prexasertib treatment, the predicted response for each patient was compared to the observed treatment outcomes in the previously conducted phase II clinical trials for the patient (Table 6 and FIGS. 5, 12, and 13). This was done in a blinded manner, with quantitative biomarker scores and clinical annotation provided to a third-party biostatistician and the principal investigator, respectively. Observed treatment outcomes were classified according to RECIST criteria as partial response (PR), stable disease (SD), or progressive disease (PD). […] Additionally, the observed treatment outcome was quantified based on the fractional change in tumor volume after treatment and progression free survival (PFS) (Table 6 and FIGS. 5, 12, and 13).

[5] = test system: metastatic high-grade serous ovarian cancer; test: Observed response in phase 2 clinical trials, patients with FFPE pre-treatment biopsies (Example 5); assay type: in vivo, human; set-up: key to RECIST response category: SD: stable disease;; PR: partial response;; PD: progressive disease;; details: for RECIST Responder: RECIST response = PR or CR
From the text: Biopsy samples from several independent clinical phase 2 studies were merged for this analysis based on availability. Study JTJN (NCT03414047) was a large multicenter, multi-country, non-randomized, parallel cohort, Phase 2 study of prexasertib in subjects with advanced stage, high grade serous ovarian, primary peritoneal, or fallopian tube cancer. Several single-center phase 2 studies sponsored by NCI of prexasertib in BRCA ½ wild-type or BRCA ½ mutant recurrent high-grade serous ovarian cancer (NCT02203513) provided additional FFPE samples; see Lee, Lancet Oncol. 19(2): 207-215 (2018). To evaluate whether a provided Response-Predictive Signature can successfully predict patient responders, sections of pre-treatment tumor biopsies were stained blinded to treatment outcome using antibodies against three biomarkers (biomarker 1 (BM1) Ser296 phosphorylated Chk1, biomarker 2 (BM2) Ser473 phosphorylated Kap1, and biomarker 3 (BM3) total cyclin E1) and imaged using immunofluorescence microscopy. The tumor samples were additionally stained using an antibody against cytokeratin in order to identify and distinguish tumor cells of interest from the surrounding stroma and stained with DAPI to identify cell nuclei.
The Response-Predictive Signature was evaluated by comparing predicted response to prexasertib of each patient to observed response in the clinical trials (Table 8, FIG. 15). Observed clinical trial responses were provided separately to the third party biostatistician. They were classified according to RECIST criteria as complete response (CR), partial response (PR), stable disease (SD), or progressive disease (PD). Additionally, the observed treatment outcome was quantified based on the maximum fractional change in tumor volume after treatment (Table 8, FIG. 15). […] Clinical RECIST responder rate (PR or CR) among those predicted by the Response-Predictive Signature to be non-responders was 5%. Clinical RECIST responder rate (PR or CR) among those predicted by the Response-Predictive Signature to be responders was 58%. This 58% represented a substantial responder-enrichment over the overall unenriched response rate of 25%.

[6] = test system: HCT116; details: HCT116 cell line; external data from prior publications; cited from earlier work
[7] = test system: PANC1; details: PANC1 cell line; external data from prior publications; cited from earlier work
[8] = test system: Ovarian, metastases; details: cited from earlier work
[9] = test system: Anal, SCC; details: cited from earlier work
[10] = individual patients predicted non-responder (NR)
[11] = individual patients predicted responder (R)

COc1cccc(OCCCN)c1-c1cc(Nc2cnc(C#N)cn2)n[nH]1 [prexasertib, 5-(5-(2-(3-aminopropoxy)-6-methoxyphenyl)-1H-pyrazol-3-ylamino)pyrazine-2-carbonitrile]
Actual response status [1]: R (EC50 values of less than or equal to 1 μM were considered to be actual responders)
Actual response status [2]: NR (values of greater than 1 μM were considered to be actual non-responders)
pEC50 ([3]; BM1 (CHEK2 (Chk2)) siRNA knockdown): 7.51
pEC50 ([3]; BM2 (TRIM28 (KAP1)) siRNA knockdown): < 5.00
pEC50 ([3]; BM3 (CCNA2 (cyclin A2)) siRNA knockdown): 6.79
pEC50 ([3]; BM3 (CCNE1) siRNA knockdown): < 5.00
pEC50 ([3]; negative control siRNA in the BM1 (CHEK2 (Chk2)) knockdown experiment): 7.92
pEC50 ([3]; negative control siRNA in the BM2 (TRIM28 (KAP1)) knockdown experiment): 7.00
pEC50 ([3]; negative control siRNA in the BM3 (CCNA2 (cyclin A2)) knockdown experiment): 7.62
pEC50 ([3]; negative control siRNA in the BM3 (CCNE1 (cyclin E1)) knockdown experiment): 7.60
FracShrink (fractional change in tumor volume) [4, 10]: 0.109 and 0 and −0.26 and −0.1 and 1.04 and 0.02 and 0.085 and −0.04
PFS [4, 10]: 70 days and 56 days and 223 days and 104 days and 63 days and 33 days and 62 days and 112 days
Treatment Result (RECIST) [4, 10]: SD (4×) and PD (4×)
FracShrink (fractional change in tumor volume) [4, 11]: −0.36 and −0.345 and −0.46 and −0.33 and −0.27 and −0.01 (2×) and −0.23 and −0.76 and −0.14 and −0.02 and −0.11 and −0.5 and −0.495 and −0.194
PFS [4, 11]: 101 days and 402 days and 286 days and 211 days and 392 days and 62 days and 510 days and 602 days and 238 days and 258 days and 140 days and 293 days and 230 days and 112 days and 123 days
Treatment Result (RECIST) [4, 11]: PR (7×) and SD (7×) and PD
overall unenriched response rate ([5]; all patients of the FFPE cohort): 25%
Clinical RECIST responder rate (PR or CR) ([5]; among those predicted by the Response-Predictive Signature to be non-responders): 5%
Clinical RECIST responder rate (PR or CR) ([5]; among those predicted by the Response-Predictive Signature to be responders): 58%
Best Tumor Shrinkage (fraction from baseline) [5, 10]: 0.048 and 0.159 and −0.037 and −0.118 (2×) and 0.353 and −0.024 and −0.077 and 0 (2×) and 0.342 and 0.105 and −0.192 and 0.146 and −0.012 and 0.015 and 0.24 and 0.1 and 0.04 and 0.01
RECIST response category [5, 10]: SD (16×) and PD (3×) and PR
RECIST Responder [5, 10]: FALSE (19×) and TRUE
Best Tumor Shrinkage (fraction from baseline) [5, 11]: 0.146 and 0 and 0.441 and 0.52 and 0.584 and −0.287 and 0.038 and 0.492 and 0.59 and 0.35 and 0.14 and 0.444
RECIST response category [5, 11]: SD (4×) and PR (7×) and PD
RECIST Responder [5, 11]: FALSE (5×) and TRUE (7×)
pEC50 [6]: 7.00
pEC50 [7]: < 5.00
ORR in trials ([8]; Ovarian, metastases, trial 1, NCI phase II trial): 32% (trial 1*)
response rate ([8]; single center, phase 2 study in ovarian cancer at NCI, single agent): 29%
ORR in trials [9]: 15%
